pEC50: −log10 of the molar value.
Biological target: Ras-related protein Rab-2A (Canis lupus familiaris, UniProt P61105)
Assay: Rab2 wildtype GTP-binding inhibitors, dose response, biochemical, GST-Rab2 beads, Bodipy-FL-GTP, flow cytometry, multiplex (AID 1337)

Ras-related protein Rab-2A, sequence (P61105 whole entry): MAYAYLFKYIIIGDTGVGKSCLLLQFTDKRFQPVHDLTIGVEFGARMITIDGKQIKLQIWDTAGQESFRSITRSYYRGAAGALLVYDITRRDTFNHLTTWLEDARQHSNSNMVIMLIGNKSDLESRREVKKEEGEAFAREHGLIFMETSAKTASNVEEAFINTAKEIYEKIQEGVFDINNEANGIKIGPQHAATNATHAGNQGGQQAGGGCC

| SMILES | pEC50 |
| --- | --- |
| O=C(O)c1ccccc1Sc1ncnc2sc3c(c12)CCC3 | 5.56 |
| OC(CNCCc1c[nH]c2ccccc12)Cn1c2ccc(Cl)cc2c2cc(Cl)ccc21 (stereo not drawn) [1-(3,6-dichloro-9-carbazolyl)-3-[2-(3H-indol-3-yl)ethylamino]-2-propanol] | 4.58 |
| Cc1nn(Cc2ccccc2)c(Cl)c1C(=O)O [1-benzyl-5-chloro-3-methyl-pyrazole-4-carboxylic acid] | 5.31 |
| Cc1cc(C)c(C)c(C(=O)c2ccccc2C(=O)O)c1C [2-(2,3,5,6-tetramethylbenzoyl)benzoic acid] | 5.20 |
| O=C(O)c1ccccc1NCCc1ccc(Cl)cc1 [2-[2-(4-chlorophenyl)ethylamino]benzoic acid] | 6.13 |
| Cc1ccc(C2=NN(S(=O)(=O)c3ccccc3)C(c3ccccc3O)C2)cc1 (stereo not drawn) [2-[2-(benzenesulfonyl)-5-(4-methylphenyl)-3,4-dihydropyrazol-3-yl]phenol] | 5.77 |
| CC(C)C(NCc1c(Cl)cccc1Cl)C(=O)O (stereo not drawn) [2-[(2,6-dichlorobenzyl)amino]-3-methyl-butyric acid] | 5.27 |
| COC(=O)c1c(-n2c(O)c3c(c2O)[C@]2(C(=O)Nc4c(C)cc(C)cc42)N2CCC[C@@H]32)sc(C)c1C [2-[(3S,3'aR,8'aS,8'bS)-5,7-dimethyl-1',2,3'-trioxo-2'-spiro[1H-indole-3,4'-3a,6,7,8,8a,8b-hexahydropyrrolo[3,4-a]pyrrolizine]yl]-4,5-dimethyl-3-thiophenecarboxylic acid methyl ester] | 5.70 |
| COc1ccc(C2CC(c3ccccc3)=NN2c2ccc(S(N)(=O)=O)cc2)cc1 (stereo not drawn) [4-[3-(4-methoxyphenyl)-5-phenyl-3,4-dihydropyrazol-2-yl]benzenesulfonamide] | 6.15 |
| COc1ccc(-c2cc(C#N)nc(N3CCNCC3)n2)cc1 [6-(4-Methoxy-phenyl)-2-piperazin-1-yl-pyrimidine-4-carbonitrile] | 4.51 |
| O=C1C([N+](=O)[O-])=Cc2oc3c(c2C1/C=N/Cc1ccccc1)CCCC3 (stereo not drawn) [(1Z)-3-nitro-1-[[(phenylmethyl)amino]methylidene]-6,7,8,9-tetrahydrodibenzofuran-2-one] | 5.40 |
| CCOc1ccc(/C=C2\SC(N3CCc4ccccc4C3)=NC2=O)cc1 [(5Z)-2-(3,4-dihydro-1H-isoquinolin-2-yl)-5-(4-ethoxybenzylidene)-2-thiazolin-4-one] | 4.45 |
| CCCN1C(=O)/C(=C/C=C2\N(CC)c3ccccc3C2(C)C)SC1=S [(5Z)-5-[(2Z)-2-(1-ethyl-3,3-dimethyl-2-indolylidene)ethylidene]-3-propyl-2-sulfanylidene-4-thiazolidinone] | 5.27 |
| O=C(O)/C=C/c1cn(Cc2ccccc2)nc1-c1cccs1 [(E)-3-(1-benzyl-3-thiophen-2-ylpyrazol-4-yl)prop-2-enoic acid] | 5.44 |
| Cc1ccccc1NC(=O)C1CCCN1S(=O)(=O)c1cccc2cccnc12 (stereo not drawn) [MLS000119085] | 5.46 |
| N=C(N)NS(=O)(=O)c1ccc(NC(=S)NC(=O)c2ccc3c(c2)OCO3)cc1 [MLS000621545] | 6.13 |
| CCS(=O)(=O)N1N=C(c2cccc(NS(C)(=O)=O)c2)CC1c1ccc(C)cc1 (stereo not drawn) [MLS000680398] | 5.57 |
| COCCn1c(=S)[nH]c2cc(C(=O)N3CCc4ccccc4C3)ccc2c1=O [SMR000310652] | 6.07 |
